The record followed here is PMC2990348 (Journal of medicinal chemistry, 2010).

This assay concerns poliovirus. The assay is classed as cell-based.

In the case of `Cc1ncnc2c1ncn2[C@@H]1O[C@H](CO)[C@@H](O)[C@H]1O` [Compound 2, 6-methyl-9-β-D-ribofuranosylpurine, reference compound], the “Frequency of viral mutagenesis compared to ribavirin” value was “neither 6 nor 2 increased the frequency of viral mutagenesis”.
Turning to `Cc1ncnc2c1ccn2[C@@H]1O[C@H](CO)[C@@H](O)[C@H]1O` [Compound 6, 4-Methyl-7-β-D-ribofuranosylpyrrolo[2,3-d]pyrimidine], the “Frequency of viral mutagenesis compared to ribavirin” value is “neither 6 nor 2 increased the frequency of viral mutagenesis”.
